# From US20060269482A1 (priority 2005, published 2006)
# Experiments:
# [1] = tested on: Rb phosphorylation in MTLn3 tumors; test: Rb phosphorylation in rat MTLn3 tumor xenografts after a single oral dose; type: in vivo; settings: single oral dose 80 mg/kg, Western blot
# Protocol: The dose selected was 80 mg/kg, determined to be an efficacious dose in this animal model. Tumor growth inhibition in the MTLn3 xenograft model after 2 to 3 weeks of oral dosing at 80 mg/kg once weekly averaged 90% with 2/10 complete regressions. COMPOUND A was dosed on day 10 post implantation of cells, at which time the tumors were 100-200 mm^3 in size. In this pharmacokinetic/pharmacodynamic experiment, plasma and tumors were collected at 1, 2, 6, 24 and 72 hours post dosing of a single oral dose of COMPOUND A. Tumors were removed and immediately snap frozen in liquid nitrogen and stored at −80° C. until drug concentration analysis. […] Concentrations of COMPOUND A in plasma and tumors were determined in the same three animals per time point. […] Peripheral blood mononuclear cells (PBMCs) were isolated, stimulated ex vivo with mitogen and analyzed by Western blot as described below.
# In a second pharmacodynamic study, plasma concentrations of COMPOUND A were similarly analyzed as described above, and Rb phosphorylation in both PBMCs and tumor xenografts treated with a single oral dose of COMPOUND A was examined.
# PBMCs were collected by transferring the cells, including attached cells and those in suspension, into 50 ml tubes. […] For Western blotting, total Rb was detected using antibody from Pharmingen (BD Bioscience, San Diego, Calif.) at a dilution of 1:2000. […]
# HCT116 cells = test: 5-day proliferation assay, cell growth inhibition; type: cell-based; settings: Homo sapiens, HCT-116, 120 h; HCT116, 5-day proliferation assay
# [2] = tested on: retinoblastoma protein (Rb) phosphorylation in HCT116 cells; test: Rb phosphorylation in HCT116 cells by Western blot and ELISA; type: cell-based, human; settings: HCT116, 20 hours, 0.1, 0.2 and 0.6 μM
# Protocol: Cells were washed 3 times with cold PBS on ice and scraped from the flasks. All cells were collected in 15 ml tubes. Cells were pelleted by centrifugation and lysis buffer was added (1:1 PBS: 2× Tris-Glycine SDS Sample Buffer (Invitrogen, Carlsbad, Calif.) containing 5% 2-β mercaptoethanol). The volume of lysis buffer used was 5 ul per 1×10^6 cells. Samples were sonicated for 30 seconds on ice. Following sonication, samples were clarified by centrifugation at 16,000×g for 10 minutes at 4° C. and protein concentrations were determined using Non-Interfering Protein Assay Kit (Geno Technology Incorporated, Maplewood, Mo.). Proteins were denatured by boiling for 5 minutes and centrifuged as described above. […] For Western blotting, total Rb was detected using antibody from Pharmingen (BD Bioscience, San Diego, Calif.) at a dilution of 1:2000. The phosphorylation status of Rb at serine 780, serine 795 and serine 807/811 was detected with phosphospecific antibodies at dilutions of 1:1000 (Cell Signaling Technology, Beverly, Mass.). […]
# HCT116 cells were treated for 20 hours at the IC50 (0.1 μM), IC90 (0.2 μM) and 3×IC90 (0.6 μM) concentrations for cell growth inhibition, as determined in a 5-day proliferation assay. Lysates were analyzed by Western blotting for Rb phosphorylation at serine 795 and serine 780 (FIG. 1). […]
compound,measurement,setting,value
"COc1ccc(F)c(F)c1C(=O)c1cnc(NC2CCN(S(C)(=O)=O)CC2)nc1N [COMPOUND A, [4-amino-2-(1-methanesulfonylpiperidin-4-ylamino)pyrimidin-5-yl]-(2,3-difluoro-6-methoxyphenyl)methanone]",Rb phosphorylation (serine 807/811) in tumor xenografts,[1],reduction in phosphorylation of Rb
same,IC50,HCT116 cells,100 nM
same,IC90,HCT116 cells,200 nM
same,"Rb phosphorylation at serine 795, serine 780 (Western blot) and threonine 821 (ELISA)",[2],inhibition of phosphorylation at all three CDK phosphorylation sites in a concentration-dependent fashion
